Series [1] deals with macrophage RAW 264.7 cells. Briefly: LPS-induced NO2− formation in macrophage RAW 264.7 cells (Griess). The series is classed as cell-based. The note with it: 25 μM pretreatment 6 hours, LPS 1.0 μg/mL 18 hours. How it is done: In this example, the ability of embodiments of the disclosed donor compound to provide anti-inflammatory activity was evaluated. To investigate the potential protective effects of the developed donors, pretreated macrophage RAW 264.7 cells were pretreated with γ-KetoTCM-1 (25 μM) for 6 hours, followed by an 18-hour incubation with lipopolysaccharide (LPS, 1.0 μg/mL) to induce an inflammatory response. This response is accompanied by an increase in NO production, which was monitored by measuring nitrite (NO2−) accumulation. To determine whether the observed effects were due to COS/H2S release, control experiments with γ-KetoTCM-3, γ-KetoCM-1, and GYY4137 under the identical condition also were performed. GYY4137 was used as a positive control because it has shown anti-inflammatory effects previously, and because it generates a slow, continuous release of H2S.
In this example, macrophage RAW 264.7 cells were seeded in a 24-well plate (5×10^5 cells/well) containing 0.50 mL of DMEM and incubated at 37° C. under 5% CO2 for 24 hours. The confluent cells were washed with PBS and incubated with either γ-KetoTCM-1, γ-KetoTCM-3, γ-KetoCM-1, or GYY4137 (25.0 μM) at 37° C. for 6 hours. Compounds were then removed by washing cells with PBS and these pretreated cells were incubated in FBS-free DMEM containing LPS (1.00 μg/mL) for 18 hours. NO2− levels were measured by using a Griess Reagent Kit.
(Griess reagent forms a coloured azo dye with nitrite.)

The nature of series [2]: COS/H2S release monitored by PNA formation (UV-Vis) in PBS containing BSA and CA. The series is classed as physicochemical. The method, then:
In this example, compound activation and subsequent COS/H2S release in PBS containing bovine serum albumin (BSA) was evaluated to mimic a complex biological environment. γ-KetoTCM-1 (50 μM) was incubated in PBS (pH 7.4, 10 mM) containing BSA (5 mg/mL) and CA (25 μg/mL) at 37° C. In particular, A γ-KetoTCM-1 stock solution (15.0 μl_, 10.0 mM in DMSO) was added to 3.00 mL of PBS (pH 7.40, 10.0 mM) containing BSA (5.00 mg/mL) and CA (25.0 μg/mL) in a quartz UV cuvette. The absorbance (250-500 nm) was measured and recorded by using an Agilent Cary 100 UV-Vis spectrometer at 37° C.

Series [3] in a line: Effects of cellular nucleophiles on COS/H2S release (PNA formation, UV-vis). The series is classed as physicochemical. To be noted: PBS pH 7.4, Cys, NAC, Hcy, GSH, Lys, Ser, Gly, GSSG, 4-hour incubation, 37° C. The method, then: To determine the effects of cellular nucleophiles on COS/H2S release, γ-KetoTCM-1 was incubated in […] PBS buffer (pH 7.4, 10 mM) containing (1) no cellular nucleophile (FIG. 4, bar 1); or 250 μM of Cys (FIG. 4, bar 2), 250 μM of N-acetyl cysteine (NAC) (FIG. 4, bar 3), 250 μM of homocysteine (Hcy) (FIG. 4, bar 4), 250 μM of GSH […] (FIG. 4, bar 5), 250 μM of lysine (Lys) (FIG. 4, bar 6), 250 μM of serine (Ser) (FIG. 4, bar 7), 250 μM of glycine (Gly) (FIG. 4, bar 8), or 250 μM of oxidized glutathione (GSSG) (FIG. 4, bar 9) at 37° C. PNA formation was monitored and recorded after a 4-hour incubation using UV-vis spectroscopy.

The next series relates to HeLa cells. As to the kind of experiment: H2S delivery in HeLa cells imaged with SF7-AM fluorescent probe. The note with it: 100 μM, 2 hours. Format: cell-based. The method, then: In this example, it was evaluated whether γ-KetoTCM-based donors can be activated to deliver H2S in cellular environments. SF7-AM, a cell-trappable H2S fluorescent probe, was used to monitor H2S accumulation from γ-KetoTCM-1 in HeLa cells. In the absence of γ-KetoTCM-1, no fluorescent signal from SF7-AM was observed, indicating negligible endogenous H2S (FIG. 9, left column, including the top and bottom images).
HeLa cells were plated in poly-D-lysine coated plates (MatTek) containing 2.00 mL of DMEM and incubated at 37° C. under 5% CO2 for 24 hours. The confluent cells were washed with PBS and then co-incubated with SF7-AM (5.00 μM) and NucBlue nuclear dye (2 drops) for 30 minutes. The cells were then washed with PBS and incubated with either γ-KetoTCM-1 (100 μM) or γ-KetoCM-1 (100 μM) alone for 2 hours. Prior to imaging, the cells were washed with PBS and bathed in 2.00 mL of PBS. Cell imaging was performed on a Leica DMi8 fluorescent microscope.

A short description of series [4]: COS/H2S release monitored by PNA formation (UV-Vis) in PBS containing CA. The series is classed as physicochemical. To be noted: for half-life at 50 μM: PBS containing carbonic anhydrase (CA); for half-life at 50 μM / kobs (COS/H2S releasing kinetics): 37° C.; for kobs (COS/H2S releasing kinetics): CA 25 μg/mL, 50 μM; for krel: relative to γ-KetoTCM-1 at pH 7.4. How it is done:
To investigate COS/H2S release from donor compound embodiments, γ-KetoTCM-1 (50 μM) was incubated in PBS (pH 7.4, 10 mM) containing CA (25 μg/mL) and H2S release was detected by monitoring para-nitroaniline (PNA) formation at 37° C. In particular, a γ-KetoTCM-1 stock solution (15.0 μL, 10.0 mM in DMSO) was added to 3.00 mL of PBS (pH 6.00, 7.40 or 8.00, 10.0 mM) containing CA (25.0 μg/mL) in a quartz UV cuvette. The absorbance (250-500 nm) was measured and recorded by using Agilent Cary 100 or Cary 60 UV-Vis spectrometers at 37° C. kobs was then obtained by plotting the absorbance ratio of PNA and γ-KetoTCM-1 versus time and t1/2 was calculated by dividing In(2) by kobs.
In this example, pH effects on COS/H2S release were investigated by incubating γ-KetoTCM-1 (50 μM) in PBS (pH 6.0-8.0) and monitoring with a UV-Vis spectrometer. […] In particular, a γ-KetoTCM-1 stock solution (15.0 μL, 10.0 mM in DMSO) was added to 3.00 mL of PBS (pH 6.00, 10.0 mM) containing CA (25.0 μg/mL) in a 3-mL UV cuvette. The absorbance (250-500 nm) was measured and recorded at 37° C. kobs was then obtained by plotting the absorbance ratio of PNA and γ-KetoTCM-1 vs time.

With `CC(=O)CCOC(=S)Nc1ccc([N+](=O)[O-])cc1` [γ-KetoTCM-1], in series [1], the “effect on LPS-induced NO2− production” value is listed as “significantly reduced”. Moreover, the half-life at 50 μM in series [2] (PBS containing BSA and carbonic anhydrase (CA), pH 7.4 PBS containing BSA (5 mg/mL), 37° C.) was 0.24 ± 0.01 h; in series [4] (pH 6, pH 6.0 PBS, ln(2)/kobs), 50.7 ± 0.8 h; in series [4] (pH 7.4, pH 7.4 PBS, ln(2)/kobs), 4.26 h; in series [4] (pH 8, pH 8.0 PBS) it was 1.53 ± 0.03 h. The “pseudo first-order rate constant kobs from fitting the UV-vis data” value in series [2] (PBS pH 7.4, BSA 5 mg/mL, CA, 37° C.) is on record as 8.1±0.3 ×10^−4 s^−1. Moreover, the “kobs (COS/H2S releasing kinetics)” value is given as 81.0 ± 3.0 ×10^−5 s^−1 in series [2] (pH 7.4 PBS containing BSA (5 mg/mL), CA, 37° C.); 0.380 ± 0.006 ×10^−5 s^−1 in series [4] (pH 6.0 PBS); 4.52±0.02 ×10^−5 s^−1 in series [4] (pH 7.4 PBS); 12.6 ± 0.2 ×10^−5 s^−1 in series [4] (pH 8.0 PBS). Besides, the krel is 18.0 in series [2] (pH 7.4 PBS containing BSA (5 mg/mL), relative to pH 7.4 without BSA); 0.084 in series [4] (pH 6.0 PBS); 1.00 in series [4] (pH 7.4 PBS); 2.79 in series [4] (pH 8.0 PBS). In series [3], the “PNA formation in presence of cellular nucleophiles versus background” value was “None of the tested nucleophiles resulted in substantial PNA formation”. The “SF7-AM fluorescence (H2S accumulation)” value in the series on HeLa cells is “significant increase in SF7-AM fluorescence”.

Source of the values: US11981626B1, “Compound embodiments for hydrogen sulfide production and methods of making and using the same” (University of Oregon, priority 2018, dated 2024).
